Here are results for 4 molecules from patent publication US20030158250A1, “Agents correcting gene expression regulatory error” (priority 2000, published 2003).

One assay concerns HO1 protein. Nature of the assay: HO1 protein induction in RAW 264.7 cells (Western blot). The conditions noted are these: for induction action for HO production (band ascribed to HO1 protein): 15 hours, DGE at 10 to 40 μM. Format: cell-based. Also noted: key to Intensity of Bands of HO1 Protein: those showing no bands are indicated by “−,”; the intensities of the bands are indicated by +−, +, ++ in the ascending order of the intensities of the bands; the intensities of the bands are indicated by +−, +, ++ in the ascending order of the intensities of the bands; the intensities of the bands are indicated by +−, +, ++ in the ascending order of the intensities of the bands. The method, then: RAW 264.7 cells (ATCC TIB 71) were suspended in a Dulbecco's modified Eagle's medium (manufactured by Bio Whittaker; 12-604F) containing 10% fetal bovine serum (manufactured by Gibco), so as to have a concentration of 3×10^5 cells/ml. The cell suspension was added to each well of a 6-well microtiter plate in a volume of 5 ml each. The cells were cultured at 37° C. in the presence of 5% CO2 gas overnight. To each well was added 50 μl of 4 mM, 2 mM or 1 mM DGE aqueous solution (each of final concentrations: 40 μM, 20 μM or 10 μM), and the cells were cultured for 15 hours. […] The cells were harvested by peeling off the cells from the plate with a scraper. The harvested cells were suspended in 0.1 M Tris-HCl buffer (pH 7.5) containing 0.05 mM pepstatin (manufactured by Sigma, P5318), 0.2 mM leupeptin (manufactured by Sigma, L2884), 1 mM phenylmethylsulfonyl fluoride (manufactured by nakalai tesque, 273-27), 10 mM disodium dihydrogenethylenediaminetetraacetate and 0.1% Triton X-100, and subjected to freezing and thawing once. Thereafter, the supernatant obtained by centrifugation was used as a protein fraction. The protein content in the protein fraction was assayed by Micro BCA Protein Assay Reagent (one manufactured by Pierce sold by Takara Shuzo Co., Ltd., P7411). Each of the resulting protein fraction samples was mixed with an equal volume of 0.125 M Tris-HCl buffer (pH 6.8) containing 4% sodium lauryl sulfate (SDS), 2% 2-mercaptoethanol,
0.001% Bromophenol Blue and 20% glycerol, and the mixture was treated at 100° C. for 5 minutes. A mixture containing a protein in an amount of 10 μg or so was loaded on 12.5% SDS-polyacrylamide gel, and electrophoresed with a constant current of 20 mA. In a blotting buffer containing 48 mM Tris, 39 mM glycine, 20% methanol, 0.0375% SDS, the gel after the electrophoresis was transferred to a PDVF membrane (manufactured by Millipore Corporation, IPVHOOO 10) in accordance with the attached protocol, using transblot SD cell semi-drive blotting device (manufactured by BioRad), at a constant voltage of 15 V for 25 minutes. The transferred PVDF membrane was blocked overnight in a Block Ace (manufactured by DAINIPPON PHARMACEUTICAL CO., LTD., UK-B25) solution at 4° C. The blocked membrane was washed for 15 minutes thrice with phosphate-buffered physiological saline containing 0.1% Tween 20 under gentle shaking. Thereafter, the membrane was subjected to the reaction under gentle shaking in phosphate-buffered physiological saline containing 10% Block Ace with a 200 ng/ml anti-HOl antibody (N-19, manufactured by Santa Cruz, sc-7696) and 0.1% Tween 20 at room temperature for 1 hour, and was washed for 15 minutes thrice with phosphate-buffered physiological saline containing 0.1% Tween 20 under gentle shaking. Next, the membrane was subjected to the reaction under gentle shaking in phosphate-buffered physiological saline with 10% Block Ace with 0.1% peroxidase-conjugated rabbit anti-goat IgG (H+L) antibody (manufactured by Zymed, 61-1620) and 0.1% Tween 20 at room temperature for 1 hour, and was washed for 15 minutes five times with phosphate-buffered physiological saline containing 0.1% Tween 20 under gentle shaking. Subsequently, a PVDF membrane was stained by using Western blot Chemiluminescence Reagent Plus (one manufactured by NEN Life Science Products sold by Daiichikagaku, NEL103) in accordance with the attached protocol, and sensitized on an X-ray film (manufactured by Kodak, CAT 1651454). The sensitized film was developed with FPM800 (manufactured by Fuji Photo Film Co., Ltd.).
As a result, there could be confirmed a band ascribed to HO1 protein in the group with addition of DGE. […] In the table, + symbols were given in accordance with the intensity of the band for HO1 protein. In other words, in Table 3, those showing no bands are indicated by “−,” and the intensities of the bands are indicated by +−, +, ++ in the ascending order of the intensities of the bands.

For a further assay, the system named is TNFα. Nature of the assay: LPS-stimulated TNFα production in monocytes (ELISA). The conditions noted are these: human monocytes, final concentration 50 μM, 100 μM or 200 μM, 5 hours, then LPS 4 hours. The class given is cell-based. The method, then: PBMCs were isolated in the same manner as in item (1) of Example 4. PBMCs were suspended in RPMI 1640 medium containing 5% human serum of blood type-AB, 0.1 mM nonessential amino acid, 1 mM sodium pyruvate, 2 mM L-glutamine (hereinabove manufactured by Bio Whittaker), 10 mM HEPES (manufactured by nakalai tesque), and 1% streptomycin-penicillin (manufactured by Gibco BRL) (hereinafter simply referred to as “5HRPMI medium”) so as to have a concentration of 2×10^6 cells/ml. Thereafter, the suspension was spread on a 24-well cell culture plate (manufactured by Falcon) in a volume of 1 ml/well, and the cells were incubated in a wet-type incubator at 37° C. and 5% CO2 for 1.5 hours. After 1.5 hours, the non-adherent cells were removed by suction, and each well was washed with RPMI 1640 medium, and 1 ml of the 5HRPMI medium was added to the wells, to give monocytes.
To the monocytes obtained above was added in each well 10 μl of a 1 mM, 2 mM or 4 mM aqueous DGE solution (each having a final concentration of 10 μM, 20 μM or 40 μM), or a 5 mM, 10 mM or 20 mM aqueous agarobiose solution (each having a final concentration of 50 μM, 100 μM or 200 μM), or 10 μl of water as a control (i.e. each of concentrations of DGE and agarobiose being 0 μM), and the cells were incubated in a wet-type incubator at 37° C. and 5% CO2 for 5 hours. […]

The test system of a further assay is interleukin-6 (IL-6). Nature of the assay: TPA-induced IL-6 production in peritoneal macrophage (ELISA). Format: cell-based. The conditions noted are these: mouse peritoneal macrophage, final concentrations 20 μM and 10 μM, 14 hours, IL-6 in culture supernatant by ELISA. The method, then:
Four milliliters of a 10% fetal bovine serum-containing RPMI 1640 medium (manufactured by Bio Whittaker, 12-702F) was intraperitoneally injected to ddy mouse (Nippon SLC, female, 7-weeks old), and the mouse was well massaged, and the medium was taken out to obtain peritoneal cells. The peritoneal cells were suspended in the 10% fetal bovine serum-containing RPMI 1640 medium so as to have a concentration of 10^6 cells/ml, and dispensed into 48-well microtiter plate in a volume of 500 μl each. The peritoneal cells were cultured at 37° C. for 2 hours in the presence of 5% CO2 gas. Thereafter, the culture supernatant was removed to give adherent cells to be used as peritoneal macrophage. To each well was freshly dispensed a Dulbecco's modified Eagle's medium (manufactured by Bio Whittaker; 12-917F) without phenol red containing 10% fetal bovine serum and 2 mM L-glutamine in a volume of 500 μl. […] The content of interleukin-6 (IL-6) in the culture supernatant was assayed by enzyme immuno-sandwich assay (ELISA: Matched antibody Pair SamplePak mouse IL-6, manufactured by Endogen). Here, the group with no addition of DGE and TPA aqueous solution (control) was set as a negative control, and the group with addition of TPA aqueous solution alone (control+TPA) was set as a positive control. In addition, all of the assays were carried out twice.
In general terms: ELISA stands for enzyme-linked immunosorbent assay.

For the next assay, the system named is interleukin-10 (IL-10). Nature of the assay: LPS-induced IL-10 production in RAW 264.7 cells (ELISA). The class given is cell-based. The conditions noted are these: final concentration 20 μM, 5 hours, then LPS 18 hours, IL-10 in culture supernatant by ELISA. The method, then: RAW 264.7 cells (ATCC TIB 71) were suspended in a Dulbecco's modified Eagle's medium (manufactured by Bio Whittaker; 12-604F) containing 10% fetal bovine serum (manufactured by Gibco), so as to have a concentration of 3×10^5 cells/ml. The cell suspension was added to each well of a 48-well microtiter plate in a volume of 0.5 ml each. The cells were cultured at 37° C. in the presence of 5% CO2 gas overnight. To each well was added 5 μl of a 2 mM DGE aqueous solution (final concentration: 20 μM), and the cells were cultured for additional 5 hours. Thereafter, 5 μl of a 100 μg/ml lipopolysaccharide (LPS, manufactured by Sigma, L-2012) aqueous solution was added thereto, and the cells were cultured for 18 hours, and thereafter the culture supernatant was recovered. The content of the interleukin-10 (IL-10) in the culture supernatant was assayed by the enzyme immuno-sandwich assay. Here, the group with no addition of DGE and LPS aqueous solution (control) was set as a negative control, and the group with addition of LPS aqueous solution (control+LPS) alone was set as a positive control. In addition, all of the assays were carried out twice.

For `CCCCC/C=C/C=C1/C(=O)C=C[C@@H]1C/C=C\CCCC(=O)O` [15-Deoxy-Δ12,14 prostaglandin J2, reference compound], the “Intensity of Bands of HO1 Protein” value in the assay with HO1 protein (5 μl of 3 mM dimethyl sulfoxide solution added to 5 ml well, positive control) was “++”.

As for `OC[C@H]1O[C@@H](O[C@H]2[C@H]3OC[C@@H]2OC(O)[C@H]3O)[C@H](O)[C@@H](O)[C@H]1O` (mixture of isomers) [agarobiose], the “inhibition of LPS-stimulated TNFα production” value with TNFα was “inhibition”.

As for `N[C@@H](CCC(=O)N[C@@H](CSC1CC2(O)OCC1OC2O)C(=O)NCC(=O)O)C(=O)O` (stereo partly drawn) [DGE-GSH, 5-L-glutathion-S-yl-2-hydroxy-3,7-dioxabicyclo[2.2.2]octan-1-ol], the “induction action for HO production (band ascribed to HO1 protein)” value in the assay with HO1 protein is “induction action”. Further, the “inhibition of TPA-induced IL-6 production” value with interleukin-6 (IL-6) is “inhibitory action”. The “inhibition of LPS-induced IL-10 production” value in the assay on interleukin-10 (IL-10) is “inhibitory action”. Besides, the “inhibitory activity for cancer cell proliferation” value in the assay with HL-60 cells is given as “active”.

For `O=C1C=CC(CO)OC1O` [κ-DGE, D-Glycero-1,5-epoxy-1αβ,6-dihydroxy-cis-hex-3-en-2-one], the “induction action for HO production (band ascribed to HO1 protein)” value in the assay on HO1 protein is “induction action”. Moreover, the “inhibition of TPA-induced IL-6 production” value with interleukin-6 (IL-6) (listed as K-DGE) is reported as “inhibitory action”. Besides, in the assay with interleukin-10 (IL-10), the “inhibition of LPS-induced IL-10 production” value is “inhibitory action”.
